How the values were obtained:
HS 578T = assay: SRB growth assay, 2 days exposure, breast cancer; assay type: cell-based
Method: (§1) Arsenic trioxide (1 mg/ml, 10 mg/ampoule, manufactured by Taylor Pharmaceuticals, Decatur, Ill.) was tested at five concentrations each at 10-fold dilutions, i.e., 10^−5, 10^−6, 10^−7, 10^−8 and 10^−9 μg/ml.
(§2) The in vitro tests were performed by incubating the test cells in the presence of the indicated concentration of arsenic trioxide under standard culture conditions for a designated period of time, which is followed by a sulforhodamine B (SRB) protein assay to estimate cell viability or growth. The cell lines are organized into subpanels according to the origin of the cell lines, e.g., leukemia, breast cancer, etc. A description of the cell lines and method of testing is described in Monk et al. (1997, Anticancer Drug Des. 12:533-41) and Weinstein et al., (1997, Science 275:343-9), which are incorporated herein in their entirety.
(§3) The measurement of an effect is expressed in Percentage Growth (PG). The measured effect of the compound on a cell line is calculated according to one or the other of the following two expressions: If (Mean ODtest−Mean ODzero)≧0. then PG=100×(Mean ODtest−Mean ODzero)/(Mean ODctrl−Mean ODzero) If (Mean ODtest−Mean ODzero)<0. then PG=100×(Mean ODtest−Mean ODzero)/(Mean ODzero where: • Mean ODzero=the average of optical density measurements of SRB-derived color just before exposure of cells to the test compounds; • Mean ODtest=the average of optical density measurements of SRB-derived color after exposure of cells to the test compound for a designated period of time; and • Mean ODctrl=the average of optical density measurements of SRB-derived color after with no exposure of cells to the test compound for a designated period of time
(§4) The first two columns describe the subpanel (e.g., leukemia) and cell line (e.g., CCRF-CEM) involved. The next two columns list the Mean ODzero and Mean ODctrl; the next five columns list the Mean ODtest for each of five different concentrations. Each concentration is expressed as the log10 (molar or μg/ml). The next five columns list the calculated PGs for each concentration. The response parameters GI50, TGI and LC50 are interpolated values representing the concentrations at which the PG is +50, 0, and −50, respectively. Sometimes these response parameters cannot be obtained by interpolation. If, for instance, all of the PGs in a given row exceed +50, then none of the three parameters can be obtained by interpolation. In such a case, the value given for each response parameter is the highest concentration tested and is preceded by a “>” sign. This practice is extended similarly to the other possible situations where a response parameter cannot be obtained by interpolation.
(§5) In the first set, the cells from 56 different cancer cell lines were exposed to five concentrations of arsenic trioxide continuously for two days prior to performing the SRB assay. In the second set, the cells from 50 different cell lines (a subset of the first 56 cell lines, plus the renal cancer cell line 786-0) were exposed continuously for six days prior to the SRB assay.

MCF7 = assay: SRB growth assay, 2 days exposure, breast cancer; assay type: cell-based
Method: as §1, §2, §3, §4, §5

NCI/ADR-RES = assay: SRB growth assay, 2 days exposure, breast cancer; assay type: cell-based
Method: as §1, §2, §3, §4, §5

HCT-15 = assay: SRB growth assay, 6 days exposure, colon cancer; assay type: cell-based; conditions: HCT-15, 6 days
Method: as §1, §2, §3, §4, §5

IGROVI = assay: SRB growth assay, 6 days exposure, ovarian cancer; assay type: cell-based; conditions: IGROV1, 6 days
Method: as §1, §2, §3, §4, §5

OVCAR-3 = assay: SRB growth assay, 6 days exposure, ovarian cancer; assay type: cell-based; conditions: OVCAR-3, 6 days
Method: as §1, §2, §3, §4, §5

OVCAR-5 = assay: SRB growth assay, 6 days exposure, ovarian cancer; assay type: cell-based; conditions: OVCAR-5, 6 days
Method: as §1, §2, §3, §4, §5

OVCAR-8 = assay: SRB growth assay, 6 days exposure, ovarian cancer; assay type: cell-based; conditions: OVCAR-8, 6 days
Method: as §1, §2, §3, §4, §5

SK-OV-3 = assay: SRB growth assay, 6 days exposure, ovarian cancer; assay type: cell-based; conditions: SK-OV-3, 6 days
Method: as §1, §2, §3, §4, §5

[1] = test system: NB4 cells, an APL cell line; conditions: in vitro; cited from earlier work
[2] = read-out: LC50 (the source's name)

## arsenic trioxide
HS 578T
  TGI: >0.0126 ng/mL
HS 578T; log10 conc −4.9
  Percent Growth: 42%
HS 578T; log10 conc −5.9
  Percent Growth: 105%
HS 578T; log10 conc −6.9
  Percent Growth: 96%
HS 578T; log10 conc −7.9
  Percent Growth: 105%
HS 578T; log10 conc −8.9
  Percent Growth: 109%
MCF7
  TGI: >0.0126 ng/mL
MCF7; log10 conc −4.9
  Percent Growth: 11%
MCF7; log10 conc −5.9
  Percent Growth: 95%
MCF7; log10 conc −6.9
  Percent Growth: 108%
MCF7; log10 conc −7.9
  Percent Growth: 98%
MCF7; log10 conc −8.9
  Percent Growth: 99%
NCI/ADR-RES
  TGI: >0.0126 ng/mL
NCI/ADR-RES; log10 conc −4.9
  Percent Growth: 45%
NCI/ADR-RES; log10 conc −5.9
  Percent Growth: 92%
NCI/ADR-RES; log10 conc −6.9
  Percent Growth: 104%
NCI/ADR-RES; log10 conc −7.9
  Percent Growth: 99%
NCI/ADR-RES; log10 conc −8.9
  Percent Growth: 118%
HCT-15
  TGI: >1.26E−05
HCT-15; Log 10 Concentration −4.9
  Mean Optical Densities: 0.404
  Percent Growth: 10%
HCT-15; Log 10 Concentration −5.9
  Mean Optical Densities: 3.432
  Percent Growth: 89%
HCT-15; Log 10 Concentration −6.9
  Mean Optical Densities: 4.227
  Percent Growth: 110%
HCT-15; Log 10 Concentration −7.9
  Mean Optical Densities: 3.921
  Percent Growth: 102%
HCT-15; Log 10 Concentration −8.9
  Mean Optical Densities: 3.965
  Percent Growth: 103%
HCT-15; [2]
  CC50: > 12.6 µM
IGROVI
  TGI: 6.62E−06
IGROVI; Log 10 Concentration −4.9
  Mean Optical Densities: 0.216
  Percent Growth: −36%
IGROVI; Log 10 Concentration −5.9
  Mean Optical Densities: 2.877
  Percent Growth: 91%
IGROVI; Log 10 Concentration −6.9
  Mean Optical Densities: 3.204
  Percent Growth: 103%
IGROVI; Log 10 Concentration −7.9
  Mean Optical Densities: 3.056
  Percent Growth: 98%
IGROVI; Log 10 Concentration −8.9
  Mean Optical Densities: 3.541
  Percent Growth: 115%
IGROVI; [2]
  CC50: > 12.6 µM
OVCAR-3
  TGI: 2.36E−06
OVCAR-3; Log 10 Concentration −4.9
  Mean Optical Densities: 0.001
  Percent Growth: −99%
OVCAR-3; Log 10 Concentration −5.9
  Mean Optical Densities: 0.482
  Percent Growth: 37%
OVCAR-3; Log 10 Concentration −6.9
  Mean Optical Densities: 1.124
  Percent Growth: 97%
OVCAR-3; Log 10 Concentration −7.9
  Mean Optical Densities: 1.128
  Percent Growth: 98%
OVCAR-3; Log 10 Concentration −8.9
  Mean Optical Densities: 1.047
  Percent Growth: 90%
OVCAR-5
  TGI: 7.53E−06
OVCAR-5; Log 10 Concentration −4.9
  Mean Optical Densities: 0.028
  Percent Growth: −26%
OVCAR-5; Log 10 Concentration −5.9
  Mean Optical Densities: 1.287
  Percent Growth: 91%
OVCAR-5; Log 10 Concentration −6.9
  Mean Optical Densities: 1.478
  Percent Growth: 105%
OVCAR-5; Log 10 Concentration −7.9
  Mean Optical Densities: 1.460
  Percent Growth: 104%
OVCAR-5; Log 10 Concentration −8.9
  Mean Optical Densities: 1.433
  Percent Growth: 102%
OVCAR-5; [2]
  CC50: > 12.6 µM
OVCAR-8
  TGI: 3.21E−06
OVCAR-8; Log 10 Concentration −4.9
  Mean Optical Densities: −0.001
  Percent Growth: −100%
OVCAR-8; Log 10 Concentration −5.9
  Mean Optical Densities: 1.437
  Percent Growth: 68%
OVCAR-8; Log 10 Concentration −6.9
  Mean Optical Densities: 2.242
  Percent Growth: 107%
OVCAR-8; Log 10 Concentration −7.9
  Mean Optical Densities: 1.848
  Percent Growth: 88%
OVCAR-8; Log 10 Concentration −8.9
  Mean Optical Densities: 2.272
  Percent Growth: 109%
SK-OV-3
  TGI: 5.27E−06
SK-OV-3; Log 10 Concentration −4.9
  Mean Optical Densities: 0.020
  Percent Growth: −51%
SK-OV-3; Log 10 Concentration −5.9
  Mean Optical Densities: 1.247
  Percent Growth: 84%
SK-OV-3; Log 10 Concentration −6.9
  Mean Optical Densities: 1.461
  Percent Growth: 99%
SK-OV-3; Log 10 Concentration −7.9
  Mean Optical Densities: 1.410
  Percent Growth: 96%
SK-OV-3; Log 10 Concentration −8.9
  Mean Optical Densities: 1.445
  Percent Growth: 98%
[1]
  apoptosis (programmed cell death): induced apoptosis
